Experimental data published in patent US9113629B2, “4-amino-6-(4-substituted-phenyl)-picolinates and 6-amino-2-(4-substituted-phenyl)-pyrimidine-4-carboxylates and their use as herbicides” (DOW AGROSCIENCES LLC, priority 2013, dated 2015).
Read-outs that look alike come from different tables or passages of the source.

How the values were obtained:
[1] = system: Key Broadleaf Weed and Crop Species; test: Post-emergent Test II herbicidal activity (Table 5); assay type: in vivo; settings: post-emergence, 336 h, 14 days after application; for pest or weed control at 70 g/ha: application rate 70 g ai/ha
Summary of the method: (§1)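 Test species were raised 7–21 d under greenhouse conditions until reaching the first or second true leaf, sprayed with formulated compound at 187 L/ha, and kept subirrigated to avoid wash-off. Fourteen days later, damage was rated visually on a 0–100% scale against untreated plants.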

[2] = system: Key Grass and Sedge Weeds as well as Grass Crops; test: Post-emergent Test II herbicidal activity (Table 6); assay type: in vivo; settings: post-emergence, 336 h; for pest or weed control at 70 g/ha: 70 g ai/ha
Summary of the method: as §1

[3] = ABUTH: velvetleaf (Abutilon theophrasti), read-out: Visual Growth Reduction (%) 14 Days After Application, ABUTH
[4] = ABUTH: velvetleaf (Abutilon theophrasti), application rate 140 g ai/ha, read-out: Visual Growth Reduction (%) 14 Days After Application, ABUTH
[5] = AMARE: redroot pigweed (Amaranthus retroflexus), read-out: Visual Growth Reduction (%) 14 Days After Application, AMARE
[6] = AMARE: redroot pigweed (Amaranthus retroflexus), application rate 140 g ai/ha, read-out: Visual Growth Reduction (%) 14 Days After Application, AMARE
[7] = BRSNN: oilseed-rape, canola (Brassica napus), read-out: Visual Growth Reduction (%) 14 Days After Application, BRSNN
[8] = BRSNN: oilseed-rape, canola (Brassica napus), application rate 140 g ai/ha, read-out: Visual Growth Reduction (%) 14 Days After Application, BRSNN
[9] = CHEAL: lambsquarters (Chenopodium album), read-out: Visual Growth Reduction (%) 14 Days After Application, CHEAL
[10] = CHEAL: lambsquarters (Chenopodium album), application rate 140 g ai/ha, read-out: Visual Growth Reduction (%) 14 Days After Application, CHEAL
[11] = EPHHL: wild poinsettia (Euphorbia heterophylla), read-out: Visual Growth Reduction (%) 14 Days After Application, EPHHL
[12] = EPHHL: wild poinsettia (Euphorbia heterophylla), application rate 140 g ai/ha, read-out: Visual Growth Reduction (%) 14 Days After Application, EPHHL
[13] = HELAN: sunflower (Helianthus annuus), read-out: Visual Growth Reduction (%) 14 Days After Application, HELAN
[14] = HELAN: sunflower (Helianthus annuus), application rate 140 g ai/ha, read-out: Visual Growth Reduction (%) 14 Days After Application, HELAN
[15] = VIOTR: wild pansy (Viola tricolor), read-out: Visual Growth Reduction (%) 14 Days After Application, VIOTR
[16] = VIOTR: wild pansy (Viola tricolor), application rate 140 g ai/ha, read-out: Visual Growth Reduction (%) 14 Days After Application, VIOTR
[17] = CYPES: yellow nutsedge (Cyperus esculentus), read-out: Visual Growth Reduction (%) 14 Days After Application, CYPES
[18] = CYPES: yellow nutsedge (Cyperus esculentus), 140 g ai/ha, read-out: Visual Growth Reduction (%) 14 Days After Application, CYPES
[19] = DIGSA: crabgrass (Digitaria sanguinalis), read-out: Visual Growth Reduction (%) 14 Days After Application, DIGSA
[20] = DIGSA: crabgrass (Digitaria sanguinalis), 140 g ai/ha, read-out: Visual Growth Reduction (%) 14 Days After Application, DIGSA
[21] = ECHCG: barnyardgrass (Echinochloa crus-galli), read-out: Visual Growth Reduction (%) 14 Days After Application, ECHCG
[22] = ECHCG: barnyardgrass (Echinochloa crus-galli), 140 g ai/ha, read-out: Visual Growth Reduction (%) 14 Days After Application, ECHCG
[23] = ORYSA: rice (Oryza sativa), crop, read-out: Visual Growth Reduction (%) 14 Days After Application, ORYSA
[24] = ORYSA: rice (Oryza sativa), crop, 140 g ai/ha, read-out: Visual Growth Reduction (%) 14 Days After Application, ORYSA
[25] = SETFA: giant foxtail (Setaria faberi), read-out: Visual Growth Reduction (%) 14 Days After Application, SETFA
[26] = SETFA: giant foxtail (Setaria faberi), 140 g ai/ha, read-out: Visual Growth Reduction (%) 14 Days After Application, SETFA
[27] = SORVU: grain sorghum (Sorghum vulgare), read-out: Visual Growth Reduction (%) 14 Days After Application, SORVU
[28] = SORVU: grain sorghum (Sorghum vulgare), 140 g ai/ha, read-out: Visual Growth Reduction (%) 14 Days After Application, SORVU
[29] = TRZSS (wheat, Triticum aestivum), crop, read-out: Visual Growth Reduction (%) 14 Days After Application, TRZSS
[30] = TRZSS (wheat, Triticum aestivum), crop, 140 g ai/ha, read-out: Visual Growth Reduction (%) 14 Days After Application, TRZSS
[31] = ZEAMX: maize, corn (Zea mays), crop, read-out: Visual Growth Reduction (%) 14 Days After Application, ZEAMX
[32] = ZEAMX: maize, corn (Zea mays), crop, 140 g ai/ha, read-out: Visual Growth Reduction (%) 14 Days After Application, ZEAMX

melting point [°C]	Structure (SMILES)	pest or weed control at 70 g/ha [1, 3] [%]	pest or weed control at 140 g/ha [1, 4] [%]	pest or weed control at 70 g/ha [1, 5] [%]	pest or weed control at 140 g/ha [1, 6] [%]	pest or weed control at 70 g/ha [1, 7] [%]	pest or weed control at 140 g/ha [1, 8] [%]	pest or weed control at 70 g/ha [1, 9] [%]	pest or weed control at 140 g/ha [1, 10] [%]	pest or weed control at 70 g/ha [1, 11] [%]	pest or weed control at 140 g/ha [1, 12] [%]	pest or weed control at 70 g/ha [1, 13] [%]	pest or weed control at 140 g/ha [1, 14] [%]	pest or weed control at 70 g/ha [1, 15] [%]	pest or weed control at 140 g/ha [1, 16] [%]	pest or weed control at 70 g/ha [2, 17] [%]	pest or weed control at 140 g/ha [2, 18] [%]	pest or weed control at 70 g/ha [2, 19] [%]	pest or weed control at 140 g/ha [2, 20] [%]	pest or weed control at 70 g/ha [2, 21] [%]	other results
190 to 192	C#Cc1ccc(-c2nc(C(=O)OC)c(Cl)c(N)c2F)c(F)c1F [Compound 22]	0 to 29	0 to 29	0 to 29	0 to 29	0 to 29	60 to 74	45 to 59	75 to 84	0 to 29	95 to 100	45 to 59	75 to 84	0 to 29	0 to 29	0 to 29	0 to 29	0 to 29	0 to 29	0 to 29	pest or weed control at 140 g/ha [2, 22]: 45 to 59%; pest or weed control at 70 g/ha [2, 23]: 0 to 29%; pest or weed control at 140 g/ha [2, 24]: 0 to 29%; pest or weed control at 70 g/ha [2, 25]: 0 to 29%; pest or weed control at 140 g/ha [2, 26]: 0 to 29%; pest or weed control at 70 g/ha [2, 27]: 0 to 29%; pest or weed control at 140 g/ha [2, 28]: 0 to 29%; pest or weed control at 70 g/ha [2, 29]: 0 to 29%; pest or weed control at 140 g/ha [2, 30]: 0 to 29%; pest or weed control at 70 g/ha [2, 31]: 0 to 29%; pest or weed control at 140 g/ha [2, 32]: 45 to 59%
169 to 170	COC(=O)c1nc(-c2ccc(I)c(F)c2F)nc(N)c1OC [Compound 24, methyl 6-amino-2-(2,3-difluoro-4-iodophenyl)-5-methoxypyrimidine-4-carboxylate]	95 to 100	95 to 100	75 to 84	85 to 94	95 to 100	95 to 100	95 to 100	95 to 100	95 to 100	95 to 100	85 to 94	95 to 100	45 to 59	95 to 100	95 to 100	95 to 100	45 to 59	60 to 74	95 to 100	pest or weed control at 140 g/ha [2, 22]: 95 to 100%; pest or weed control at 70 g/ha [2, 23]: 0 to 29%; pest or weed control at 140 g/ha [2, 24]: 0 to 29%; pest or weed control at 70 g/ha [2, 25]: 60 to 74%; pest or weed control at 140 g/ha [2, 26]: 85 to 94%; pest or weed control at 70 g/ha [2, 27]: 85 to 94%; pest or weed control at 140 g/ha [2, 28]: 85 to 94%; pest or weed control at 70 g/ha [2, 29]: 0 to 29%; pest or weed control at 140 g/ha [2, 30]: 30 to 44%; pest or weed control at 70 g/ha [2, 31]: 95 to 100%; pest or weed control at 140 g/ha [2, 32]: 95 to 100%
170.7 to 171.3	C#Cc1ccc(-c2nc(N)c(OC)c(C(=O)O)n2)cc1 [Compound 28]																				pest or weed control at 140 g/ha ([1]; ABUTH: velvetleaf (Abutilon theophrasti), 140 g ai/ha, post-emergent, read-out: Visual Growth Reduction (%) 14 Days After Application ABUTH): 0 to 29%; pest or weed control at 140 g/ha ([1]; AMARE: redroot pigweed (Amaranthus retroflexus), 140 g ai/ha, post-emergent, read-out: Visual Growth Reduction (%) 14 Days After Application AMARE): 95 to 100%; pest or weed control at 140 g/ha ([1]; BRSNN: oilseed-rape, canola (Brassica napus), 140 g ai/ha, post-emergent, read-out: Visual Growth Reduction (%) 14 Days After Application BRSNN): 0 to 29%; pest or weed control at 140 g/ha ([1]; CHEAL: lambsquarters (Chenopodium album), 140 g ai/ha, post-emergent, read-out: Visual Growth Reduction (%) 14 Days After Application CHEAL): 95 to 100%; pest or weed control at 140 g/ha ([1]; EPHHL: wild poinsettia (Euphorbia heterophylla), 140 g ai/ha, post-emergent, read-out: Visual Growth Reduction (%) 14 Days After Application EPHHL): 95 to 100%; pest or weed control at 140 g/ha ([1]; HELAN: sunflower (Helianthus annuus), 140 g ai/ha, post-emergent, read-out: Visual Growth Reduction (%) 14 Days After Application HELAN): 85 to 94%; pest or weed control at 140 g/ha ([1]; VIOTR: wild pansy (Viola tricolor), 140 g ai/ha, post-emergent, read-out: Visual Growth Reduction (%) 14 Days After Application VIOTR): 0 to 29%; pest or weed control at 140 g/ha ([2]; Triticum aestivum, TRZSS (wheat), application rate 140 g ai/ha, read-out: Visual Growth Reduction (%) 14 Days After Application, TRZSS): 0 to 29%; pest or weed control at 140 g/ha ([2]; CYPES: yellow nutsedge (Cyperus esculentus), application rate 140 g ai/ha, read-out: Visual Growth Reduction (%) 14 Days After Application, CYPES): 0 to 29%; pest or weed control at 140 g/ha ([2]; DIGSA: crabgrass (Digitaria sanguinalis), application rate 140 g ai/ha, read-out: Visual Growth Reduction (%) 14 Days After Application, DIGSA): 60 to 74%; pest or weed control at 140 g/ha ([2]; ECHCG: barnyardgrass (Echinochloa crus-galli), application rate 140 g ai/ha, read-out: Visual Growth Reduction (%) 14 Days After Application, ECHCG): 0 to 29%; pest or weed control at 140 g/ha ([2]; ORYSA: rice (Oryza sativa), application rate 140 g ai/ha, read-out: Visual Growth Reduction (%) 14 Days After Application, ORYSA): 0 to 29%; pest or weed control at 140 g/ha ([2]; SETFA: giant foxtail (Setaria faberi), application rate 140 g ai/ha, read-out: Visual Growth Reduction (%) 14 Days After Application, SETFA): 45 to 59%; pest or weed control at 140 g/ha ([2]; SORVU: grain sorghum (Sorghum vulgare), application rate 140 g ai/ha, read-out: Visual Growth Reduction (%) 14 Days After Application, SORVU): 0 to 29%; pest or weed control at 140 g/ha ([2]; ZEAMX: maize, corn (Zea mays), application rate 140 g ai/ha, read-out: Visual Growth Reduction (%) 14 Days After Application, ZEAMX): 60 to 74%
